# Patent publication US6699825B2, “Acidic hard-surface antimicrobial cleaner” (S.C. Johnson & Son, Inc., priority 2001, dated 2004)
# What was measured:
# [1] = cited from earlier work
# Staphylococcus aureus = experiment: EPA Non-Food Contact Sanitizer Test DIS/TSS-10, glass slide, 5% fetal bovine serum; format: cell-based; conditions: S. aureus; dilute aqueous acidic solution; 1-minute contact
# Description: (§1) Low-residue hard surface cleaner formulations of the present invention were evaluated for sanitizing efficacy under the United States Environmental Protection Agency's Non-Food Contact Sanitizer Test, DIS/TSS-10 (Jan. 7, 1982). As noted in specific examples, a 30 second or 1 minute contact time using a glass slide test surface was used. As these formulas are to be used as one-step antimicrobial cleaners, fetal bovine serum was added to the innoculum at a concentration of 5.0 percent by weight to simulate an organic soil load such as one would expect to find on a typical non-food contact surface prior to cleaning.
# (§2) Efficacy of the test solutions was evaluated versus Staphylococcus aureus (S. aureus), Klebsiella pneumoniae (K. pneumoniae), and Salmonella choleraesius (S. choleraesius). As a control, parallel tests were conducted using a 0.01 percent solution of Triton X-100 (isooctylphenoxyl-polyethoxyethanol with 9-10 moles of oxyethylene) in an identical manner as the test solutions. The results for the test solutions were compared to the control and are reported as “Log Kill” of the test organism versus the control counts in Table 2. A “Log Kill” of 5 means that 99.999 percent of the organism has been killed.
# Klebsiella pneumoniae = experiment: as above; format: cell-based; conditions: K. pneumoniae; dilute aqueous acidic solution; 1-minute contact
# Description: as §1, §2
SMILES,Solubility in water at 20-25° C. [1],antimicrobial synergy with low levels of organocarboxylic acids (Staphylococcus aureus),antimicrobial synergy with low levels of organocarboxylic acids (Klebsiella pneumoniae),miscibility in water [1]
"CCCCCOCCO [EGPE, Ethylene Glycol n-Pentyl Ether]",3.4%,enhanced biocidal efficacy,enhanced biocidal efficacy,
"CC(C)O [IPA, Iso-propanol]",Infinite,no significant antimicrobial synergy,no significant antimicrobial synergy,completely miscible
"OCCOc1ccccc1 [Eph, Ethylene Glycol Phenyl Ether]",2.3%,enhanced biocidal efficacy,enhanced biocidal efficacy,
"CCOCCOCCO [Carbitol, Diethylene Glycol Ethyl Ether]",Infinite,no significant antimicrobial synergy,no significant antimicrobial synergy,completely miscible
"COC(C)COC(C)CO (centres unmarked) [DPM, Dipropylene Glycol Methyl Ether]",Infinite,no significant antimicrobial synergy,no significant antimicrobial synergy,completely miscible
"CCCCCCOCCOCCO [DEGHE, Diethylene Glycol n-Hexyl Ether]",,enhanced biocidal efficacy,enhanced biocidal efficacy,
"OCc1ccccc1 [BA, Benzyl Alcohol]",3.8%,enhanced biocidal efficacy,enhanced biocidal efficacy,
